Data on 25 compounds can be found in US12043602B2, “Fendiline derivatives” (The Board of Regents of the University of Texas System, priority 2019, dated 2024).

Molecules are shown by their SMILES.

One data set deals with mGFP-K-RASG12V (Homo sapiens (Human), UniProt P01116, G12V). Briefly: K-Ras mislocalization assay (confocal microscopy, Manders coefficient). Type of data set: cell-based. The arrangement: key to Emax: Manders coefficient: fraction of mCherry-CAAX co-localizing with GFP-K-Ras. The settings on record: MDCK cells; for Emax: maximal effect, Manders coefficient, 48 h; for IC50: 48 h treatment, read-out: IC50 (μM), KRASG12V mislocalization. A digest of the protocol:
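Readout is the Manders coefficient: share of mCherry-CAAX overlapping mGFP-K-RASG12V in confocal images, proportional to K-Ras mislocalization. Stable MDCK co-expressing lines were exposed 48 h to various drug concentrations or 0.1% DMSO vehicle, then paraformaldehyde-fixed.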

Data set [1] has as its system MDCK cells co-expressing GFP-K-RASG12V and mCherry-CAAX. Nature of the data set: Cytotoxicity in mislocalization screen (death of all cells in well). The settings on record: drug caused death of all cells in well at 30 μM.

At mGFP-K-RASG12V, `O=C(/C=C/c1ccccc1)N(CC=C(c1ccccc1)c1ccccc1)CCN1CCCC1` [PW284, N-(3,3-diphenylallyl)-N-(2-(pyrrolidin-1-yl)ethyl)cinnamamide] came in with an Emax of 0.549. Moreover, the “Cytotoxic at 30 μM” value in data set [1] was “Yes”.

Regarding `O=C(c1cnc2ccccc2n1)N(CC=C(c1ccccc1)c1ccccc1)CCN1CCCC1` [PW285, N-(3,3-diphenylallyl)-N-(2-(pyrrolidin-1-yl)ethyl)quinoxaline-2-carboxamide], on mGFP-K-RASG12V, the IC50 is 4.52 µM and the Emax turned out to be 0.62. Besides, in data set [1], the “Cytotoxic at 30 μM” value is listed as “Yes”.

Turning to `O=C(c1cc2ccccn2n1)N(CC=C(c1ccccc1)c1ccccc1)CCN1CCCC1` [PW286, N-(3,3-diphenylallyl)-N-(2-(pyrrolidin-1-yl)ethyl)pyrazolo[1,5-a]pyridine-2-carboxamide], on mGFP-K-RASG12V, the IC50 came to 6.63 µM and the Emax was 0.801. Further, in data set [1], the “Cytotoxic at 30 μM” value is “No”.

In the case of `C(CN(CCN1CCCC1)Cc1cc2cccnc2[nH]1)=C(c1ccccc1)c1ccccc1` [PW293, N-((1H-pyrrolo[2,3-b]pyridin-2-yl)methyl)-3,3-diphenyl-N-(2-(pyrrolidin-1-yl)ethyl)prop-2-en-1-amine], at mGFP-K-RASG12V, the IC50 was 3.37 µM and the Emax came out at 0.83. Further, the “Cytotoxic at 30 μM” value in data set [1] was “Yes”.

Consider `Brc1cccc(CN(CC=C(c2ccccc2)c2ccccc2)CCN2CCCC2)n1` [PW295, N-((6-bromopyridin-2-yl)methyl)-3,3-diphenyl-N-(2-(pyrrolidin-1-yl)ethyl)prop-2-en-1-amine], for which, on mGFP-K-RASG12V, the IC50 is 2.82 µM and the Emax turned out to be 0.801. Further, the “Cytotoxic at 30 μM” value in data set [1] is reported as “Yes”.

Take `C[C@H](c1ccc(F)cc1)N(CC=C(c1ccccc1)c1ccccc1)CCn1ccc2cccnc21` [PW297, (R)-N-(2-(1H-pyrrolo[2,3-b]pyridin-1-yl)ethyl)-N-(1-(4-fluorophenyl)ethyl)-3,3-diphenylprop-2-en-1-amine]: on mGFP-K-RASG12V, the IC50 is 2.27 µM and the Emax was found to be 0.685. In addition, the “Cytotoxic at 30 μM” value in data set [1] was “No”.

As to `Cc1cc(C)n(CCN(CC=C(c2ccccc2)c2ccccc2)[C@H](C)c2ccc(F)cc2)n1` [PW299, (R)-N-(2-(3,5-dimethyl-1H-pyrazol-1-yl)ethyl)-N-(1-(4-fluorophenyl)ethyl)-3,3-diphenylprop-2-en-1-amine], at mGFP-K-RASG12V, the IC50 stood at 0.654 µM and the Emax stood at 0.696. Moreover, the “Cytotoxic at 30 μM” value in data set [1] is “No”.

Regarding `C[C@H](c1ccc(F)cc1)N(CC=C(c1ccccc1)c1ccccc1)CCn1cc(CCO)nn1` [PW303, (R)-2-(1-(2-((3,3-diphenylallyl)(1-(4-fluorophenyl)ethyl)amino)ethyl)-1H-1,2,3-triazol-4-yl)ethan-1-ol], on mGFP-K-RASG12V, the IC50 is 4.13 µM and the Emax worked out at 0.675. For the same compound, in data set [1], the “Cytotoxic at 30 μM” value is “Yes”.

As to `C[C@H](c1ccc(F)cc1)N(CC=C(c1ccccc1)c1ccccc1)CCn1cc(CO)nn1` [PW304, (R)-(1-(2-((3,3-diphenylallyl)(1-(4-fluorophenyl)ethyl)amino)ethyl)-1H-1,2,3-triazol-4-yl)methanol], at mGFP-K-RASG12V, the 50% inhibitory concentration (IC50) is 2.77 µM and the Emax is on record as 0.794. In addition, the “Cytotoxic at 30 μM” value in data set [1] is “No”.

Consider `C[C@H](c1ccc(F)cc1)N(CC=C(c1ccccc1)c1ccccc1)CCn1cc(CN)nn1` [PW305, (R)-N-(2-(4-(aminomethyl)-1H-1,2,3-triazol-1-yl)ethyl)-N-(1-(4-fluorophenyl)ethyl)-3,3-diphenylprop-2-en-1-amine], for which, at mGFP-K-RASG12V, the IC50 was found to be 0.507 µM and the Emax came to 0.609. Also, the “Cytotoxic at 30 μM” value in data set [1] is given as “Yes”.

Regarding `C[C@H](c1ccc(F)cc1)N(CC=C(c1ccccc1)c1ccccc1)CCn1cc(CN(C)C)nn1` [PW306, (R)-N-(2-(4-((dimethylamino)methyl)-1H-1,2,3-triazol-1-yl)ethyl)-N-(1-(4-fluorophenyl)ethyl)-3,3-diphenylprop-2-en-1-amine], on mGFP-K-RASG12V, the IC50 was 3.19 µM and the Emax was determined as 0.666. Moreover, the “Cytotoxic at 30 μM” value in data set [1] is “Yes”.

`COC(=O)c1cn(CCN(CC=C(c2ccccc2)c2ccccc2)[C@H](C)c2ccc(F)cc2)nn1` [PW307, methyl (R)-1-(2-((3,3-diphenylallyl)(1-(4-fluorophenyl)ethyl)amino)ethyl)-1H-1,2,3-triazole-4-carboxylate] returned an Emax on mGFP-K-RASG12V of 0.628. For the same compound, the “Cytotoxic at 30 μM” value in data set [1] is on record as “No”.

With `C[C@H](c1ccc(F)cc1)N(CC=C(c1ccccc1)c1ccccc1)CCn1cc(-c2ccc(F)cc2)nn1` [PW308, (R)-N-(2-(4-(4-fluorophenyl)-1H-1,2,3-triazol-1-yl)ethyl)-N-(1-(4-fluorophenyl)ethyl)-3,3-diphenylprop-2-en-1-amine], on mGFP-K-RASG12V, the IC50 amounted to 3.32 µM and the Emax was determined as 0.721. In addition, in data set [1], the “Cytotoxic at 30 μM” value is listed as “No”.

For the compound `C[C@H](c1ccc(F)cc1)N(CCN1CCCC1)C(=O)Nc1ccc(C(F)(F)F)cc1` [PW321, (R)-1-(1-(4-Fluorophenyl)ethyl)-1-(2-(pyrrolidin-1-yl)ethyl)-3-(4-(trifluoromethyl)phenyl)urea], the Emax on mGFP-K-RASG12V came to 0.587. Further, the “Cytotoxic at 30 μM” value in data set [1] is reported as “No”.

Turning to `C[C@H](c1ccc(F)cc1)N(CCN1CCCC1)C(=O)c1ccc(C(F)(F)F)cc1` [PW322, (R)-N-(1-(4-Fluorophenyl)ethyl)-N-(2-(pyrrolidin-1-yl)ethyl)-4-(trifluoromethyl)benzamide], at mGFP-K-RASG12V, the Emax was found to be 0.662. In data set [1], the “Cytotoxic at 30 μM” value is on record as “No”.

Take `C[C@H](c1ccc(F)cc1)N(CCN1CCCC1)C(=O)c1cc(-c2ccccc2)ccn1` [PW324, (R)-N-(1-(4-Fluorophenyl)ethyl)-4-phenyl-N-(2-(pyrrolidin-1-yl)ethyl)picolinamide]: on mGFP-K-RASG12V, the IC50 is 2.9 µM and the Emax is reported as 0.767. Further, the “Cytotoxic at 30 μM” value in data set [1] is recorded as “No”.

With `Cc1ccc(C(=CCN(CCN2CCCC2)[C@H](C)c2ccc(F)cc2)c2ccc(C)cc2)cc1` [PW327, (R)-N-(1-(4-Fluorophenyl)ethyl)-N-(2-(pyrrolidin-1-yl)ethyl)-3,3-di-p-tolylprop-2-en-1-amine], on mGFP-K-RASG12V, the IC50 turned out to be 7.8 µM and the Emax was 0.808. For the same compound, the “Cytotoxic at 30 μM” value in data set [1] is “Yes”.

Consider `COc1ccc(C(=CCN(CCN2CCCC2)[C@H](C)c2ccc(F)cc2)c2ccc(OC)cc2)cc1` [PW356, (R)-N-(1-(4-Fluorophenyl)ethyl)-3,3-bis(4-methoxyphenyl)-N-(2-(pyrrolidin-1-yl)ethyl)prop-2-en-1-amine], for which, at mGFP-K-RASG12V, the IC50 was 2.44 µM and the Emax is 0.641. The “Cytotoxic at 30 μM” value in data set [1] is recorded as “Yes at 10 uM”.

`COc1cccc(C(=CCN(CCN2CCCC2)[C@H](C)c2ccc(F)cc2)c2cccc(OC)c2)c1` [PW357, (R)-N-(1-(4-Fluorophenyl)ethyl)-3,3-bis(3-methoxyphenyl)-N-(2-(pyrrolidin-1-yl)ethyl)prop-2-en-1-amine] yielded an Emax on mGFP-K-RASG12V of 0.497. In addition, the “Cytotoxic at 30 μM” value in data set [1] was “Yes at 10 uM”.

As to `COc1cc(C(=CCN(CCN2CCCC2)[C@H](C)c2ccc(F)cc2)c2cc(OC)c(OC)c(OC)c2)cc(OC)c1OC` [PW358, (R)-N-(1-(4-Fluorophenyl)ethyl)-N-(2-(pyrrolidin-1-yl)ethyl)-3,3-bis(3,4,5-trimethoxyphenyl)prop-2-en-1-amine], on mGFP-K-RASG12V, the IC50 was determined as 1.02 µM and the Emax turned out to be 0.938. In addition, the “Cytotoxic at 30 μM” value in data set [1] is “Yes”.

With `C[C@H](c1ccc(F)cc1)N(C/C=C(/c1ccccc1)c1ccc(OC(F)(F)F)cc1)CCN1CCCC1` [PW361, (R,Z)-N-(1-(4-fluorophenyl)ethyl)-3-phenyl-N-(2-(pyrrolidin-1-yl)ethyl)-3-(4-(trifluoromethoxy)phenyl)prop-2-en-1-amine], at mGFP-K-RASG12V, the IC50 was found to be 0.725 µM and the Emax is 0.606. In addition, the “Cytotoxic at 30 μM” value in data set [1] was “Yes at 3 uM”.

With `COc1ccc(/C(=C\CN(CCN2CCCC2)[C@H](C)c2ccc(F)cc2)c2ccc(F)cc2)cc1` [PW454, (R,E)-3-(4-fluorophenyl)-N-(1-(4-fluorophenyl)ethyl)-3-(4-methoxyphenyl)-N-(2-(pyrrolidin-1-yl)ethyl)prop-2-en-1-amine], at mGFP-K-RASG12V, the IC50 was 0.319 µM and the Emax stood at 0.771. The “Cytotoxic at 30 μM” value in data set [1] was “Yes at 10 uM”.

`C[C@H](c1ccc(F)cc1)N(C/C=C(/c1ccc(F)cc1)c1ccc(C(F)(F)F)cc1)CCN1CCCC1` [PW455, (R,E)-3-(4-fluorophenyl)-N-(1-(4-fluorophenyl)ethyl)-N-(2-(pyrrolidin-1-yl)ethyl)-3-(4-(trifluoromethyl)phenyl)prop-2-en-1-amine]: on mGFP-K-RASG12V, the IC50 is 1.86 µM and the Emax is given as 0.821. For the same compound, the “Cytotoxic at 30 μM” value in data set [1] is reported as “Yes at 10 uM”.

Turning to `COc1ccc(/C(=C\CN(CCN2CCCC2)[C@H](C)c2ccc(F)cc2)c2ccccc2)cc1` [PW460, (R,Z)-N-(1-(4-fluorophenyl)ethyl)-3-(4-methoxyphenyl)-3-phenyl-N-(2-(pyrrolidin-1-yl)ethyl)prop-2-en-1-amine], at mGFP-K-RASG12V, the IC50 was 2.02 µM and the Emax came to 0.801. Also, the “Cytotoxic at 30 μM” value in data set [1] was “Yes at 10 uM”.

`C[C@H](c1ccc(F)cc1)N(CC=C(c1ccccc1)c1ccccc1)CCNc1cc(-c2ccc(F)cc2)n[nH]1` [PW2100, (R)-N^1-(3,3-diphenylallyl)-N^2-(3-(4-fluorophenyl)-1H-pyrazol-5-yl)-N^1-(1-(4-fluorophenyl)ethyl)ethane-1,2-diamine] displayed an Emax at mGFP-K-RASG12V of 0.414. For the same compound, the “Cytotoxic at 30 μM” value in data set [1] is given as “No”.
